From patent US8609610B2, “Inhibitors of the trypsin-like site of the proteasome and methods of use thereof” (Trustees of Dartmouth College, priority 2011, dated 2013)
pIC50: −log10 of the molar value. Where two headings read alike, the source gives them in different places.

How the values were obtained:
[1] = molecular target: T1, caspase-like sites (β1) of proteasome in MM cells (Homo sapiens, UniProt P28072+Q99436); test: PROTEASOMEGLO assay of proteasome inhibition in MM cells; format: cell-based; conditions: 6 hours, >>30 no inhibition at 30 μM, >30 inhibition 10-50% at 30 μM, read-out: IC50 for sites: Casp-L
T1 sequence (P28072 35-239): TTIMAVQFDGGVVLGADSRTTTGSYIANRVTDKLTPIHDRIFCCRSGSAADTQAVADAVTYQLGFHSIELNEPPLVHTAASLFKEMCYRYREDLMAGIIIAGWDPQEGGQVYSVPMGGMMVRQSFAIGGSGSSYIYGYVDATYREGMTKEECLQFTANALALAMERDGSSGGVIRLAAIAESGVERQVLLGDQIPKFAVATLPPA
T1 sequence (Q99436 44-277): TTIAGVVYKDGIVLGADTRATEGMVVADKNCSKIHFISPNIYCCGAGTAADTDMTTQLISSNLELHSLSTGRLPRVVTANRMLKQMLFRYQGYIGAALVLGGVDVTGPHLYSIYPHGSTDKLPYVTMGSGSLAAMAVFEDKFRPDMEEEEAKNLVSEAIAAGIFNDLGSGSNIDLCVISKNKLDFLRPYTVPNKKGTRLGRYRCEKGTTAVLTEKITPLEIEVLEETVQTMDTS

cathepsin D = molecular target: T2, cathepsin D (Homo sapiens, UniProt P07339); test: Cathepsin D activity assay (SENSOLYTE 520); format: cell-based; conditions: concentrations as high as 27 μM
T2 construct: endogenous in cells
T2 sequence (P07339 65-412): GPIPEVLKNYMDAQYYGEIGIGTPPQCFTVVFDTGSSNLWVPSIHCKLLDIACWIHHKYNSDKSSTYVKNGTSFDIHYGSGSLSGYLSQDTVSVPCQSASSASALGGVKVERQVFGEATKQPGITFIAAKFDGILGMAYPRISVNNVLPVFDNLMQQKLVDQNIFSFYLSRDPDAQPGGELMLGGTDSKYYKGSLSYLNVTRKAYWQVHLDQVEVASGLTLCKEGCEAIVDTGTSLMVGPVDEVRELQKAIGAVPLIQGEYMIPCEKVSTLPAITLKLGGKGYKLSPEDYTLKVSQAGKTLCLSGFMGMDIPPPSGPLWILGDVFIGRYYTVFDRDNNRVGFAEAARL
Protocol: Cathepsin B, H, L, S activity was measured with pan-cathepsin substrate Z-FR-amc (Kirschke & Wiederanders (1994) Methods Enzymol. 244:500-11) in extracts of cytosol-less cells at pH 6.0 (Screen, et al. (2010) supra). Cathepsin D activity was measured in cytosol-less extracts using SENSOLYTE 520 Cathepsin D Fluorometric Assay Kit (AnaSpec). Combined cathepsin D and E activity was measured using the same kit, in which cathepsin D substrate provided with the kit was replaced with 7-Methoxycoumarin-[…](Dnp)-X′-NH2 (SEQ ID NO:10; where “X′” stand for D-Arg) internally quenched fluorogenic substrate of cathepsin D and E. In this case, pH 3.0 assay buffer used for cell extraction. All activity observed using both procedures was inhibited by more than 98% by specific inhibitor of aspartic proteases pepstatin A.

[2] = tested on: MM cell lines NCI-H929, MM1.R, RPMI-8226, KMS-18, KMS-12-BM; test: ALAMAR BLUE viability, panel of MM cell lines; format: cell-based
Protocol: RPMI-8226 and NCI-H929 cells were cultured in RPMI-1640 supplemented with 10% fetal bovine serum, penicillin, streptomycin, and plasmocin in 5% CO2 humidified incubator. HEK-293T cells were cultured in DMEM containing 10% fetal calf serum, 10 units/mL penicillin, and 10 μg/mL streptomycin in a 7% CO2 humidified incubator. Viability of multiple myeloma cells was measured with ALAMAR BLUE mitochondrial dye conversion assay. Viability of peripheral blood mononuclear cells (PBMNCs) was measured using CELL TITER-GLO luminescent cell viability assay (Promega), which is based on quantification of ATP present in the cells. Caspase-3/7 activity was measured using APO-ONE 3/7 homogeneous assay (Promega).
In a parallel set of experiments, it was tested whether co-inhibiting caspase-like and trypsin-like sites suffices to induce cytotoxicity in the absence of inhibition of the chymotrypsin-like sites and whether such dual inhibition is a stronger sensitizer to LU-005 than inhibition of the trypsin-like sites alone. Four additional myeloma cell lines, MM1.R, RPMI-8226, KMS-18, and KMS-12-BM, were selected for these experiments. These cell lines vary up to 40-fold in their sensitivity to bortezomib and NC-005 (Britton, et al. (2009) supra). In all experiments, NC-022 was used at a concentration that inhibited trypsin-like activity by more than 90% after a 6-hour incubation.

β2 and β2i sites = test: MV-151 label-competition in extracts of RPMI-8226 MM cells; format: biochemical; conditions: extracts of RPMI-8226 cells, MV-151 probe
Text: Multiple myeloma cells express constitutive proteasomes and immunoproteasomes, and substrates used for the measurement of activity were cleaved by both. To determine whether there were any differences in inhibition of constitutive proteasomes or immunoproteasomes by NC-002, NC-012, and NC-022, the fluorescent activity-based probe MV-151 (Verdoes, et al. (2006) Chem. Biol. 13:1217-1226) was used in a label-competition experiment. Extracts of RPMI-8226 MM cells (which express more immunoproteasomes than NCI-H929 cells) were treated first with the NC inhibitors and then with the MV-151 probe. This was followed by fractionation on SDS-PAGE to separate proteasome subunits and imaging to reveal those subunits labeled by the probe (i.e., unmodified by the inhibitors).

NCI-H929 cells = test: ALAMAR BLUE cell viability assay; format: cell-based
Summary of the method: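 Myeloma lines were grown in RPMI-1640 with 10% FBS; viability of myeloma cells was read by ALAMAR BLUE mitochondrial dye conversion. PBMNC viability used CELL TITER-GLO ATP luminescence. Caspase-3/7 activity in NCI-H929 and MM1.R was measured with the APO-ONE homogeneous assay.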

[3] = molecular target: T3, chymotrypsin-like site of 26S proteasomes (Oryctolagus cuniculus, UniProt G1T4Q9); test: Inhibition of purified 26S proteasomes, substrate Suc-LLVY-amc; format: biochemical, rabbit; conditions: >>30 no inhibition at 30 μM, >30 inhibition between 10 and 50% at 30 μM, read-out: IC50 for sites in 26S proteasomes: Chym-L
T3 sequence (G1T4Q9 1-263): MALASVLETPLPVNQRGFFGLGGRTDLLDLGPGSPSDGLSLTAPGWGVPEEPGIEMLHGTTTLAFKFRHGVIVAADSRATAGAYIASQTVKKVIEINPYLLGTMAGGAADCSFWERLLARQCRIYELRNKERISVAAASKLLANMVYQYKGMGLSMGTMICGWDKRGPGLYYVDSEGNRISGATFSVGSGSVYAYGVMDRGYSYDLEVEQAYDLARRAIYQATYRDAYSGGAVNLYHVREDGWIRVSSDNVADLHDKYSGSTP

[4] = molecular target: caspase-like site of 26S proteasomes (Oryctolagus cuniculus, UniProt A0A5F9DQW2); test: Inhibition of purified 26S proteasomes, substrate Ac-nLPnLD-amc; format: biochemical, rabbit; conditions: >>30 no inhibition at 30 μM, >30 inhibition between 10 and 50% at 30 μM, read-out: IC50 for sites in 26S proteasomes: Casp-L
caspase-like site of 26S proteasomes, sequence (A0A5F9DQW2 1-212): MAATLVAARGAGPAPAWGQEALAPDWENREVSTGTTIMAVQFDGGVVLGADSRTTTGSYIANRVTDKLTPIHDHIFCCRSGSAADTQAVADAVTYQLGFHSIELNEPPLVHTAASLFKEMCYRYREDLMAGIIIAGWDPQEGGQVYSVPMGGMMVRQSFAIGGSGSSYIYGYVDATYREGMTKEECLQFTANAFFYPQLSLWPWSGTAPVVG

For Cc1c(O)cccc1C(=O)N[C@H](C(=O)N[C@@H](CO)C(=O)N[C@@H](CCCNC(=N)N)C(=O)[C@@]1(C)CO1)C(C)C [NC-022, HMB-Val-Ser-Arg-ek], the pIC50 ([1]; NCI-H929 cells) was less than 4.52, the pIC50 ([1]; RPMI-8226 cells) was less than 4.52 and the “inhibition of cathepsin D” value (cathepsin D) was “did not inhibit”. For the same compound, the “sensitization to LU-005 compared with NC-001” value ([2]; NCI-H929 and KMS-12-BM) was “more potent sensitizer than NC-001”, the “reduction of the IC50 for LU-005” value ([2]; all MM cell lines, NC-022 at concentration inhibiting trypsin-like activity >90% after 6 h) was 4-10 fold and the “reduction of cell viability” value ([2]; continuous exposure to mixture of NC-022 and NC-001, both sites blocked by more than 90%) was 20-50%. For the same compound, the “sensitization of MM cells to LU-005” value ([2]; mixture of NC-001 and NC-022 after 1 hour LU-005) was “much stronger sensitizer than NC-022 alone”, the “inhibition of constitutive (β2) versus immunoproteasome (β2i) trypsin-like sites” value (β2 and β2i sites) was “equipotent inhibitors of the trypsin-like sites of constitutive and immunoproteasomes” and the “sensitization: change of IC50 of LU-005” value (NCI-H929 cells; LU-005 1 hour, then NC-022 48 hours, maximal at 3 μM NC-022) was “up to 8.5 fold”. For the same compound, the cell viability (NCI-H929 cells; NCI-H929, 48 hours, even at concentrations that completely inhibited the trypsin-like sites) was “No loss of viability”, the pIC50 [3] was 5.77 and the pIC50 [4] was 4.80.
